US20060009478A1, “Methods for the treatment of back pain” (priority 2003, published 2006)

Tested on: patients with moderate to severe chronic pain due to osteoarthritis of the hip or knee
Experiment: Pain intensity (daily diary, 11-point numerical scale), 3-week osteoarthritis study
Format: in vivo, human
Conditions: ITT, LOCF, average of last two days of dosing week
Protocol: A multicenter, randomized, double-blind, active- and placebo-controlled, dose escalation, clinical study was designed and conducted. […] During a 4- to 7-day washout period, patients stopped taking all of their pain medication other than acetaminophen (500 mg every 4-6 hours PRN (a maximum of 5 caplets per day)).
Pain Intensity was assessed by prompting the patient with the question, “How would you rate your overall pain intensity at this time?”, and the PI score was recorded in the clinic. Pain Intensity was also assessed by prompting the patient with the question, “How would you rate your overall pain intensity during the past 24 hours?”, and a daily PI diary score was recorded by the patient at bedtime. For both Pain Intensity prompts, the response was scored on an 11-point numerical scale (0=no pain and 10=severe pain).
For the efficacy analysis, endpoints were represented and analyzed by week. Missing efficacy data was imputed across weeks using the last-observation-carried-forward (LOCF) method. Thus, the primary procedure for the analysis of efficacy data was based on a LOCF approach.
The daily pain intensity ratings were summarized as follows. For each week, the pain intensity recorded on the last two full days of dosing within the week, restricted to Day 5 or later, was averaged. If only a single observation was available, it was used; otherwise, the endpoint was not defined. The pain intensity averages were represented as both (1) a change from baseline and (2) a percent change from baseline. The baseline value was defined as the average pain intensity over the last two values recorded during the baseline period; if necessary, a single value was used.
For primary analysis of data, the primary efficacy endpoint was the percent change from baseline in pain intensity at Week 3. Percent change in pain intensity was analyzed using ANOVA methods. The ANOVA model included factors for treatment, sex, and their interaction. Additional covariates could be added to the model for exploratory purposes. Pairwise treatment group comparisons were made using contrasts within the ANOVA framework. Testing employed Type III sums of squares. If the assumptions of the parametric tests were not valid, non-parametric tests were used.

[1] = 11-point scale 0=no pain, 10=severe pain

Structure (SMILES): COc1ccc2c3c1O[C@H]1C(=O)CC[C@@]4(O)[C@@H](C2)N(C)CC[C@]314 [OXY QID, oxycodone]
- Pain intensity, actual value at Week 1, mean (FEMALE, 11-point scale): 6.2
- Pain intensity, actual value at Week 1, median (FEMALE, 11-point scale): 6.3
- Pain intensity, actual value at Week 2, mean (FEMALE, 11-point scale): 5.9
- Pain intensity, actual value at Week 2, median (FEMALE, 11-point scale): 6.3
- Pain intensity, actual value at Week 3, mean (FEMALE, 11-point scale): 5.9
- Pain intensity, actual value at Week 3, median (FEMALE, 11-point scale): 6.0
- Pain intensity, percent change from baseline to Week 1, mean: −18.4%
- Pain intensity, percent change from baseline to Week 1, median: −16.7%
- Pain intensity, percent change from baseline to Week 2, mean: −22.9%
- Pain intensity, percent change from baseline to Week 2, median: −20.0%
- Pain intensity, percent change from baseline to Week 3, median: −20.0%
- Pain intensity, actual value at Week 1, mean [1]: 6.1
- Pain intensity, actual value at Week 1, median [1]: 6.0
- Pain intensity, actual value at Week 2, mean [1]: 5.8
- Pain intensity, actual value at Week 2, median [1]: 6.0
- Pain intensity, actual value at Week 3, mean [1]: 5.6
- Pain intensity, actual value at Week 3, median [1]: 5.5
- Pain intensity, percent change from baseline to Week 3, mean (primary efficacy endpoint): −24.6%
- Pain intensity, actual value at Week 2, mean (MALE, 11-point scale): 5.5
- Pain intensity, actual value at Week 2, median (MALE, 11-point scale): 5.5
- Pain intensity, actual value at Week 3, mean (MALE, 11-point scale): 5.0
- Pain intensity, actual value at Week 3, median (MALE, 11-point scale): 4.5
- Pain intensity, actual value at Week 1, mean (males, 11-point scale): 5.9
- Pain intensity, actual value at Week 1, median (males, 11-point scale): 6.0
